Test results: patent US20230106032A1, “IMIDAZOTRIAZINES ACTING ON CANCER VIA INHIBITION OF CDK12” (Bayer Aktiengesellschaft, priority 2020, published 2023)

Target: T1, CDK2/CycE (Homo sapiens, UniProt P24941)
T1 construct: purchased ProQinase GmbH (Freiburg, Germany); host or cells: insect cells (Sf9)
Assay: CDK2/CycE kinase assay (TR-FRET, 2 mM ATP)
Type: biochemical
Details: read-out: CDK2/CyclinE, 2 mM ATP (high ATP) IC50-[mol/l] (median)
Source text: CDK2/CycE-inhibitory activity of compounds of the present invention was quantified employing the CDK2/CycE TR-FRET assay as described in the following paragraphs.
Recombinant fusion proteins of GST and human CDK2 and of GST and human CycE, expressed in insect cells (Sf9) and purified by Glutathion-Sepharose affinity chromatography, were purchase from ProQinase GmbH (Freiburg, Germany). As substrate for the kinase reaction biotinylated peptide biotin-Ttds-YISPLKSPYKISEG (C-terminus in amid form) was used which can be purchased e.g. form the company JERINI peptide technologies (Berlin, Germany).
For the assay 50 nanoL of a 100 fold concentrated solution of the test compound in DMSO was pipetted into a black low volume 384 well microtiter plate or a black 1536 well microtiter plate (both Greiner Bio-One, Frickenhausen, Germany), 2 microL of a solution of CDK2/CycE in aqueous assay buffer [50 millimol/L Tris/HCl pH 8.0, 10 millimol/L MgCl2, 1.0 millimol/L dithiothreitol, 0.1 millimol/L sodium ortho-vanadate, 0.01% (v/v) Nonidet-P40 (Sigma)] were added and the mixture was incubated for 15 min at 22° C. to allow pre-binding of the test compounds to the enzyme before the start of the kinase reaction. Then the kinase reaction was started by the addition of 3 microL of a solution of adenosine-tri-phosphate (ATP, 3.33 millimol/L=> final conc. in the 5 microL assay volume is 2 millimol/L) and substrate (1.25 micromol/L=> final conc. in the 5 microL assay volume is 0.75 micromol/L) in assay buffer and the resulting mixture was incubated for a reaction time of 25 min at 22° C. The concentration of CDK2/CycE was adjusted depending of the activity of the enzyme lot and was chosen appropriate to have the assay in the linear range, typical concentrations were in the range of 10 ng/ml. The reaction was stopped by the addition of 3 microL of a solution of TR-FRET detection reagents (0.333 micromol/L streptavidine-XL665 [Cisbio Bioassays, Codolet, France] and 1.67 nanomol/L anti-RB(pSer807/pSer8l 1)-antibody from BD Pharmingen [#558389] and 2 nanomol/L LANCE EU-W1024 labeled anti-mouse IgG antibody [Perkin-Elmer, product no. AD0077, as an alternative a Terbium-cryptate-labeled anti-mouse IgG antibody from Cisbio Bioassays can be used]) in an aqueous EDTA-solution (167 millimol/L EDTA, 0.2% (w/v) bovine serum albumin in 100 millimol/L HEPES pH 7.5).
The resulting mixture was incubated 1 h at 22° C. to allow the formation of complex between the phosphorylated biotinylated peptide and the detection reagents. Subsequently the amount of phosphorylated substrate was evaluated by measurement of the resonance energy transfer from the Eu-chelate to the streptavidine-XL. Therefore, the fluorescence emissions at 620 nm and 665 nm after excitation at 350 nm was measured in a TR-FRET reader, e.g. a Pherastar (BMG Labtechnologies, Offenburg, Germany) or a Viewlux (Perkin-Elmer). The ratio of the emissions at 665 nm and at […] was taken as the measure for the amount of phosphorylated substrate. The data were normalised (enzyme reaction without inhibitor=0% inhibition, all other assay components but no enzyme=100% inhibition).

Structure (SMILES): Fc1cccc(-c2cnc3c(NCc4nc5ccccc5[nH]4)nc(N4CCOCC4)nn23)c1 [Example 3, N-[(1H-benzimidazol-2-yl)methyl]-7-(3-fluorophenyl)-2-(morpholin-4-yl)imidazo[2,1-f][1,2,4]triazin-4-amine]
- IC50: > 20 µM

Structure (SMILES): C[C@@H]1CN(c2nc(NCc3nc4ccccc4[nH]3)c3ncc(Br)n3n2)C[C@H](C)O1 [Example 4, N-[(1H-benzimidazol-2-yl)methyl]-7-bromo-2-[rel-(2R,6S)-2,6-dimethylmorpholin-4-yl]imidazo[2,1-f][1,2,4]triazin-4-amine]
- IC50: > 20 µM

Structure (SMILES): C[C@@H]1CN(c2nc(NCc3nc4c(F)c(F)ccc4[nH]3)c3ncc(Br)n3n2)C[C@H](C)O1 [Example 5, 7-bromo-N-[(4,5-difluoro-1H-benzimidazol-2-yl)methyl]-2-[rel-(2R,6S)-2,6-dimethylmorpholin-4-yl]imidazo[2,1-f][1,2,4]triazin-4-amine]
- IC50: > 20 µM

Structure (SMILES): CN1CCN(c2nc(NCc3nc4ccccc4[nH]3)c3ncc(Br)n3n2)CC1 [Example 6, N-[(1H-benzimidazol-2-yl)methyl]-7-bromo-2-(4-methylpiperazin-1-yl)imidazo[2,1-f][1,2,4]triazin-4-amine]
- IC50: > 20 µM

Structure (SMILES): Fc1ccc2[nH]c(CNc3nc(N4CCOCC4)nn4c(Br)cnc34)nc2c1F [Example 7, 7-bromo-N-[(4,5-difluoro-1H-benzimidazol-2-yl)methyl]-2-(morpholin-4-yl)imidazo[2,1-f][1,2,4]triazin-4-amine]
- IC50: > 20 µM

Structure (SMILES): Brc1cnc2c(NCc3nc4ccccc4[nH]3)nc(N3CCNCC3)nn12 [Example 8, N-[(1H-benzimidazol-2-yl)methyl]-7-bromo-2-(piperazin-1-yl)imidazo[2,1-f][1,2,4]triazin-4-amine]
- IC50: > 20 µM

Structure (SMILES): C[C@@H]1CN(c2nc(NCc3nc4ccccc4[nH]3)c3ncc(Br)n3n2)C[C@H](C)N1 [Example 9, N-[(1H-benzimidazol-2-yl)methyl]-7-bromo-2-[rel-(3R,5S)-3,5-dimethylpiperazin-1-yl]imidazo[2,1-f][1,2,4]triazin-4-amine]
- IC50: > 20 µM

Structure (SMILES): Fc1ccc2[nH]c(CNc3nc(N4CCNCC4)nn4c(Br)cnc34)nc2c1F [Example 10, 7-bromo-N-[(4,5-difluoro-1H-benzimidazol-2-yl)methyl]-2-(piperazin-1-yl)imidazo[2,1-f][1,2,4]triazin-4-amine]
- IC50: > 20 µM

Structure (SMILES): C[C@@H]1CN(c2nc(NCc3nc4c(F)c(F)ccc4[nH]3)c3ncc(Br)n3n2)C[C@H](C)N1 [Example 11, 7-bromo-N-[(4,5-difluoro-1H-benzimidazol-2-yl)methyl]-2-[rel-(3R,5S)-3,5-dimethylpiperazin-1-yl]imidazo[2,1-f][1,2,4]triazin-4-amine]
- IC50: > 20 µM

Structure (SMILES): Fc1cccc2[nH]c(CNc3nc(N4CCOCC4)nn4c(Br)cnc34)nc12 [Example 12, 7-bromo-N-[(4-fluoro-1H-benzimidazol-2-yl)methyl]-2-(morpholin-4-yl)imidazo[2,1-f][1,2,4]triazin-4-amine]
- IC50: > 20 µM

Structure (SMILES): COc1cccc2[nH]c(CNc3nc(N4CCOCC4)nn4c(Br)cnc34)nc12 [Example 13, 7-bromo-N-[(4-methoxy-1H-benzimidazol-2-yl)methyl]-2-(morpholin-4-yl)imidazo[2,1-f][1,2,4]triazin-4-amine]
- IC50: 5.74 µM

Structure (SMILES): COc1cccc2[nH]c(CNc3nc(N4C[C@@H](C)N[C@@H](C)C4)nn4c(Br)cnc34)nc12 [Example 14, 7-bromo-2-[rel-(3R,5S)-3,5-dimethylpiperazin-1-yl]-N-[(4-methoxy-1H-benzimidazol-2-yl)methyl]imidazo[2,1-f][1,2,4]triazin-4-amine]
- IC50: > 20 µM

Structure (SMILES): COc1cccc2[nH]c(CNc3nc(N4CCNCC4)nn4c(Br)cnc34)nc12 [Example 15, 7-bromo-N-[(4-methoxy-1H-benzimidazol-2-yl)methyl]-2-(piperazin-1-yl)imidazo[2,1-f][1,2,4]triazin-4-amine]
- IC50: 14.2 µM

Structure (SMILES): COc1cccc2[nH]c(CNc3nc(N4CCN(C)CC4)nn4c(Br)cnc34)nc12.O=CO [Example 16, 7-bromo-N-[(4-methoxy-1H-benzimidazol-2-yl)methyl]-2-(4-methylpiperazin-1-yl)imidazo[2,1-f][1,2,4]triazin-4-amine Formate (1/1)]
- IC50: 12.6 µM

Structure (SMILES): OC[C@@H]1CCCCN1c1nc(NCc2nc3ccccc3[nH]2)c2ncc(Br)n2n1 [Example 17, [(2S)-1-(4-{[(1H-benzimidazol-2-yl)methyl]amino}-7-bromoimidazo[2,1-f][1,2,4]triazin-2-yl)piperidin-2-yl]methanol]
- IC50: 1.41 µM

Structure (SMILES): C[C@@H]1CN(c2nc(NCc3nc4c(F)cccc4[nH]3)c3ncc(Br)n3n2)C[C@H](C)N1 [Example 18, 7-bromo-2-[rel-(3R,5S)-3,5-dimethylpiperazin-1-yl]-N-[(4-fluoro-1H-benzimidazol-2-yl)methyl]imidazo[2,1-f][1,2,4]triazin-4-amine]
- IC50: > 20 µM

Structure (SMILES): C[C@@H]1CN(c2nc(NCc3nc4cc(F)ccc4[nH]3)c3ncc(Br)n3n2)C[C@H](C)N1 [Example 19, 7-bromo-2-[rel-(3R,5S)-3,5-dimethylpiperazin-1-yl]-N-[(5-fluoro-1H-benzimidazol-2-yl)methyl]imidazo[2,1-f][1,2,4]triazin-4-amine]
- IC50: > 20 µM

Structure (SMILES): Fc1ccc2[nH]c(CNc3nc(N4CCOCC4)nn4c(Br)cnc34)nc2c1 [Example 20, 7-bromo-N-[(5-fluoro-1H-benzimidazol-2-yl)methyl]-2-(morpholin-4-yl)imidazo[2,1-f][1,2,4]triazin-4-amine]
- IC50: 17.2 µM

Structure (SMILES): CN1CCN(c2nc(NCc3nc4cc(F)ccc4[nH]3)c3ncc(Br)n3n2)CC1 [Example 21, 7-bromo-N-[(5-fluoro-1H-benzimidazol-2-yl)methyl]-2-(4-methylpiperazin-1-yl)imidazo[2,1-f][1,2,4]triazin-4-amine]
- IC50: > 20 µM

Structure (SMILES): CN1CCN(c2nc(NCc3nc4c(F)cccc4[nH]3)c3ncc(Br)n3n2)CC1 [Example 23, 7-bromo-N-[(4-fluoro-1H-benzimidazol-2-yl)methyl]-2-(4-methylpiperazin-1-yl)imidazo[2,1-f][1,2,4]triazin-4-amine]
- IC50: > 20 µM

Structure (SMILES): C[C@@H]1CN(c2nc(NCc3nc4ccccc4[nH]3)c3ncc(C(F)(F)F)n3n2)C[C@H](C)N1.O=CO [Example 24, N-[(1H-benzimidazol-2-yl)methyl]-2-[rel-(3R,5S)-3,5-dimethylpiperazin-1-yl]-7-(trifluoromethyl)imidazo[2,1-f][1,2,4]triazin-4-amine Formate (1/1)]
- IC50: > 20 µM

Structure (SMILES): CN1CCN(c2nc(NCc3nc4ccccc4[nH]3)c3ncc(C(F)(F)F)n3n2)CC1 [Example 25, N-[(1H-benzimidazol-2-yl)methyl]-2-(4-methylpiperazin-1-yl)-7-(trifluoromethyl)imidazo[2,1-f][1,2,4]triazin-4-amine]
- IC50: > 20 µM

Structure (SMILES): FC(F)(F)c1cnc2c(NCc3nc4ccccc4[nH]3)nc(N3CCOCC3)nn12 [Example 26, N-[(1H-benzimidazol-2-yl)methyl]-2-(morpholin-4-yl)-7-(trifluoromethyl)imidazo[2,1-f][1,2,4]triazin-4-amine]
- IC50: > 19.4 µM

Structure (SMILES): Fc1ccc2[nH]c(CNc3nc(N4CCOCC4)nn4c(C(F)(F)F)cnc34)nc2c1F [Example 27, N-[(4,5-difluoro-1H-benzimidazol-2-yl)methyl]-2-(morpholin-4-yl)-7-(trifluoromethyl)imidazo[2,1-f][1,2,4]triazin-4-amine]
- IC50: > 20 µM

Structure (SMILES): CN1CCN(c2nc(NCc3nc4c(F)c(F)ccc4[nH]3)c3ncc(C(F)(F)F)n3n2)CC1 [Example 28, N-[(4,5-difluoro-1H-benzimidazol-2-yl)methyl]-2-(4-methylpiperazin-1-yl)-7-(trifluoromethyl)imidazo[2,1-f][1,2,4]triazin-4-amine]
- IC50: > 20 µM

Structure (SMILES): C[C@@H]1CN(c2nc(NCc3nc4c(F)c(F)ccc4[nH]3)c3ncc(C(F)(F)F)n3n2)C[C@H](C)N1 [Example 29, N-[(4,5-difluoro-1H-benzimidazol-2-yl)methyl]-2-[rel-(3R,5S)-3,5-dimethylpiperazin-1-yl]-7-(trifluoromethyl)imidazo[2,1-f][1,2,4]triazin-4-amine]
- IC50: > 20 µM
